Source: patent US7767625B2 (dated 2010)

melting point: 118 to 119 °C
Compound: C=Cc1c(NC(=O)c2cn(C)nc2C(F)(F)F)cccc1C(C)(C)C
